Results from patent publication US20240131040A1, “COMPOSITIONS AND METHODS RELATED TO CANNABINOID ANIONS” (NATURAL EXTRACTION SYSTEMS, LLC, priority 2021, published 2024).

What was measured:
[1] = test system: individual who presented with knee pain associated with inflammation caused by trauma from a fall; assay: Case report: knee pain; type: in vivo, humans; details: glycerol tincture, ingested
Protocol: An individual who presented with knee pain associated with inflammation caused by trauma from a fall was administered a glycerol tincture containing the cannabidiol anion.

[2] = test system: individual who presented with social anxiety associated with presenting at business meetings; assay: Case report: social anxiety; type: in vivo, humans; details: beverage containing the anion, before presenting
Protocol: An individual who presented with social anxiety associated with presenting at business meetings was administered a beverage containing the cannabidiol anion before presenting.

[3] = test system: individual who presented with chronic pain; assay: Case report: chronic pain; type: in vivo, humans; details: glycerol tincture
Protocol: An individual who presented with chronic pain was administered a glycerol tincture containing the cannabidiol anion.

[4] = test system: individual who presented with cancer pain caused by throat cancer; assay: Case report: cancer pain; type: in vivo, humans; details: water containing the anion, ingested
Protocol: An individual who presented with cancer pain caused by throat cancer was administered water containing the cannabidiol anion (2-[6-isopropenyl-3-methylcyclohex-2-enyl]-3-hydroxy-5-pentylphenolate).

[5] = test system: individual who presented with hip pain associated with sitting; assay: Case report: chronic hip pain; type: in vivo, humans; details: glycerol tincture, ingested
Protocol: An individual who presented with hip pain associated with sitting was administered a glycerol tincture containing the cannabidiol anion.

[6] = test system: individual who presented with chronic back pain associated with standing; assay: Case report: chronic back pain; type: in vivo, humans; details: glycerol tincture, ingested
Protocol: An individual who presented with chronic back pain associated with standing was administered a glycerol tincture containing the cannabidiol anion.

[7] = test system: individual with arthritis; assay: Case report: arthritis; type: in vivo, humans; details: glycerol tincture
Protocol: An individual who was unable to fill […] hydroxychloroquine prescription to treat the arthritis during the COVID-19 pandemic was administered a glycerol tincture containing the cannabidiol anion.

[8] = test system: individual who presented with back pain associated with driving for prolonged periods of time; assay: Case report: acute back pain; type: in vivo, humans; details: glycerol tincture, ingested
Protocol: An individual who presented with back pain associated with driving for prolonged periods of time was administered a glycerol tincture containing the cannabidiol anion.

[9] = test system: individual with hip pain and lower back pain associated with spinal fusion surgery; assay: Case report: post laminectomy syndrome; type: in vivo, humans; details: glycerol tincture, ingested
Protocol: An individual with hip pain and lower back pain associated with spinal fusion surgery was administered a glycerol tincture containing the cannabidiol anion.

[10] = test system: dog that suffers from chronic seizures; assay: Case report: epilepsy in a dog; type: in vivo; details: glycerol tincture immediately after the onset of a seizure
Protocol: A dog that suffers from chronic seizures was administered a glycerol tincture containing the cannabidiol anion immediately after the onset of a seizure.

[11] = test system: individual who presented with cramping and restless legs syndrome; assay: Case report: cramping and restless legs syndrome; type: in vivo, humans; details: glycerol tincture before sleep
Protocol: An individual who presented with cramping and restless legs syndrome was administered a glycerol tincture containing the cannabidiol anion before sleep.

[12] = test system: individuals with anxiety; assay: Case reports: anxiety; type: in vivo, humans
Protocol: An individual was administered a beverage containing the cannabidiol anion prior to driving to an airport to catch a flight that was scheduled to leave within thirty minutes of the arrival at the airport.
An individual who suffers from chronic anxiety was administered a glycerol tincture containing the cannabigerol anion.

[13] = test system: neutrophil-mediated inflammation; assay: Zymosan A knee arthritis model: neutrophil elastase imaging and transcript RT-PCR; type: in vivo; details: male C57BL/6J mice; for imaged right knee neutrophil elastase: relative to vehicle control group, imaged 4 hours post-injection, 1-64 mg/kg/day oral gavage; for adamts4 transcripts / myeloperoxidase transcripts / neutrophil elastase transcripts: relative to vehicle control groups, real-time PCR
Protocol: Male C57BL/6J mice are administered either vehicle or a cannabinoid. The cannabinoid is selected from cannabigerol and cannabigerovarin. The cannabinoid is administered at an amount of either 1, 2, 4, 8, 16, 32, or 64 milligrams cannabinoid per kilogram mouse body weight per day by oral gavage beginning when they are two months old.
Following one month of administration, mice are anesthetized with isoflurane and then 180 micrograms of zymosan A in saline is injected into the right knee of each mouse. Equivalent volumes of saline are injected into the left knee of each mouse. Mice are then injected with Neutrophil Elastase 680 FAST imaging probe (Perkin Elmer, Massachusetts, United States) and imaged 4 hours post-injection using an IVIS Spectrum In Vivo Imaging System (Perkin Elmer) to measure neutrophil-mediated inflammation. Mouse RNA is extracted and purified, and then relative adamts4 transcript, relative neutrophil elastase transcript, and relative myeloperoxidase transcript concentrations are measured following reverse transcription using real-time polymerase chain reactions.

[14] = test system: Mice fed a high-fat diet; assay: Diet-induced obesity model: body weight, serum ALT/AST, liver steatosis; type: in vivo; details: 1-64 mg/kg/day oral gavage for two months; for liver steatosis: hematoxylin and eosin staining
Protocol: Mice are fed either a control standard diet or a high-fat diet beginning when they are two months old. The mice are concomitantly administered either vehicle or a cannabinoid selected from cannabigerol and cannabigerovarin at an amount of either 1, 2, 4, 8, 16, 32, or 64 milligrams cannabinoid per kilogram mouse body weight per day by oral gavage.
Mouse body weights are measured daily. The mice are sacrificed when they are four months old following two months of the diet, cannabinoid (or vehicle), and weighing. Serum alanine aminotransferase (“ALT”) and serum aspartate aminotransferase (“AST”) are measured using a Reflotran Plus blood chemistry system (Roche, Switzerland). Mouse livers are fixed and then stained with hematoxylin and eosin to visualize liver steatosis.

[15] = test system: Female Sabra mice; assay: Zymosan A right hind paw arthritis model: paw swelling (calipers) and pain (Von Frey); type: in vivo; details: relative to vehicle control groups, 1-64 mg/kg/day oral gavage for one month; for right hind paw inflammation: swelling at 1, 2, 6, 12, 24 hours after zymosan A; for right hind paw pain: Von Frey hair aesthesiometer
Protocol: (§1) Female Sabra mice are administered either vehicle or a cannabinoid. The cannabinoid is selected from 2-geranyl-5-pentylbenzene-1,3-diol (“cannabigerol”) and 2-geranyl-5-propylbenzene-1,3-diol (“cannabigerovarin”). The cannabinoid is administered at an amount of either 1, 2, 4, 8, 16, 32, or 64 milligrams cannabinoid per kilogram mouse body weight per day by oral gavage beginning when they are two months old.
(§2) Following one month of administration of either vehicle or a cannabinoid, 30 microliters of a 2 percent weight-by-volume suspension of zymosan A in saline is injected into each right hind paw of the mice. Inflammation is measured with calipers to determine right hind paw swelling at 1, 2, 6, 12, and 24 hours following the zymosan A injection relative to left hind paw. Pain is measured with a Von Frey hair aesthesiometer to determine right hind paw sensitivity to force relative to left hind paw. Serum TNF-alpha concentration is measured at 24 hours by enzyme-linked immunosorbent assay.

[16] = test system: TNF-alpha; assay: Serum TNF-alpha by enzyme-linked immunosorbent assay in zymosan A paw model; type: in vivo, mice; details: relative to vehicle control groups; 24 hours after zymosan A; 1-64 mg/kg/day oral gavage
Protocol: as §1, §2

[17] = test system: individual who presented with peripheral neuropathy; assay: Case report: peripheral neuropathy; type: in vivo, humans; details: glycerol formulation, topical
Excerpt: An individual who presented with peripheral neuropathy topically administered a glycerol formulation containing the cannabigerol anion.

[18] = test system: individual who presented with chronic insomnia; assay: Case report: insomnia; type: in vivo, humans; details: glycerol tincture before sleep
Protocol: An individual who presented with chronic insomnia was administered a glycerol tincture containing the cannabigerol anion before sleep.

[19] = test system: individual who presented with Inflammatory Bowel Disease; assay: Case report: Inflammatory Bowel Disease; type: in vivo, humans; details: glycerol tincture
Protocol: An individual who presented with Inflammatory Bowel Disease was administered a glycerol tincture containing the cannabigerol anion.

[20] = test system: individual who presented with Crohn's disease; assay: Case report: Crohn's disease; type: in vivo, humans; details: glycerol tincture
Protocol: An individual who presented with Crohn's disease was administered a glycerol tincture containing the cannabigerol anion.

[21] = test system: individual who presented with plaque psoriasis; assay: Case report: plaque psoriasis; type: in vivo, humans; details: glycerol formulation, topical
Excerpt: An individual who presented with plaque psoriasis topically administered a glycerol formulation containing the cannabigerol anion.

Compound	imaged right knee neutrophil elastase [13]	adamts4 transcripts [13]	myeloperoxidase transcripts [13]	neutrophil elastase transcripts [13]	body weight [14]	serum ALT [14]	serum AST [14]	liver steatosis [14]	right hind paw inflammation [15]	right hind paw pain [15]	serum TNF-alpha concentration [16]	further results
C=C(C)C1CCC(C)=CC1c1c(O)cc(CCCCC)cc1O (stereo not shown) [cannabidiol anion, 2-[6-isopropenyl-3-methylcyclohex-2-enyl]-3-hydroxy-5-pentylphenolate]												mobility and knee pain (self-reported) [1]: improved mobility and alleviation of knee pain within minutes of ingestion; social anxiety and performance during business meeting (self-reported) [2]: reduced anxiety and improved performance during the business meeting; chronic pain (self-reported) [3]: alleviation of pain that significantly improved their standard of living; throat pain (self-reported) [4]: notable alleviation of throat pain within minutes of ingestion; hip pain (self-reported) [5]: notable alleviation of the hip pain within minutes of ingestion; back pain (self-reported) [6]: notable alleviation of the back pain within minutes of ingestion; treatment of arthritis compared with hydroxychloroquine (self-reported) [7]: more effective at treating their arthritis than hydroxychloroquine; back pain (self-reported) [8]: notable alleviation of the back pain within minutes of ingestion; hip pain and lower back pain (self-reported) [9]: notable alleviation of hip pain and lower back pain within minutes of ingestion; seizures (reported by owners) [10]: both instantaneously and consistently arrested multiple seizures in the dog; sleep quality (self-reported) [11]: significant improvement in sleep quality; anxiety during drive to airport (self-reported) ([12]; beverage containing the anion, before driving): notable absence of anxiety
CCCCCc1cc(O)c(C/C=C(\C)CCC=C(C)C)c(O)c1 [cannabigerol, 2-geranyl-5-pentylbenzene-1,3-diol]	dose-dependent reduction	dose-dependent reduction	dose-dependent reduction	dose-dependent reduction	dose-dependent reduction	dose-dependent reduction	dose-dependent reduction	dose-dependent reduction	dose-dependent reduction	dose-dependent reduction	dose-dependent reduction	
CCCc1cc(O)c(C/C=C(\C)CCC=C(C)C)c(O)c1 [cannabigerovarin, 2-geranyl-5-propylbenzene-1,3-diol]	dose-dependent reduction	dose-dependent reduction	dose-dependent reduction	dose-dependent reduction	dose-dependent reduction	dose-dependent reduction	dose-dependent reduction	dose-dependent reduction	dose-dependent reduction	dose-dependent reduction	dose-dependent reduction	
CCCCCc1cc(O)c(C/C=C(\C)CCC=C(C)C)c(O)c1 [cannabigerol anion, 2-geranyl-3-hydroxy-5-pentylphenolate]												peripheral neuropathy symptoms (self-reported) [17]: significant improvement in their peripheral neuropathy symptoms; onset and quality of sleep (self-reported) [18]: significant improvement in the onset and quality of their sleep; symptoms of Inflammatory Bowel Disease (self-reported) [19]: significant improvement in their symptoms of Inflammatory Bowel Disease; symptoms of Crohn's disease (self-reported) [20]: significant improvement in their symptoms of Crohn's disease; plaque psoriasis symptoms (self-reported) [21]: significant improvement in their plaque psoriasis symptoms; chronic anxiety symptoms (self-reported) ([12]; glycerol tincture): significant improvement in their anxiety symptoms
